In data set [1] the test system is Spodoptera exigua, resistant strain. Description: Spodoptera exigua test; resistant strain. It is filed as in vivo. Here is the method: Spodoptera exigua Test; Resistant Strain
Solvent: 7 parts by weight of dimethylformamide
Emulsifier: 2 parts by weight of alkylaryl polyglycol ether
To produce a suitable preparation of active compound, 1 part by weight of active compound is mixed with the stated amounts of solvent and emulsifier and the concentrate is diluted with emulsifier-containing water to the desired concentration.
Cabbage leaves (Brassica oleracea) are treated by being dipped into the active compound preparation of the desired concentration and populated with caterpillars of the army worm (Spodoptera exigua, resistant strain) while the leaves are still moist.
After the desired period of time, the kill in % is determined. 100% means that all caterpillars have been killed; 0% means that none of the caterpillars have been killed.

Data set [2] has as its system caterpillars of the diamondback moth (Plutella xylostella). Description: Plutella test (leaf dip). It is filed as in vivo. On the procedure:
(§1) Plutella Test Solvent: 7 parts by weight of dimethylformamide Emulsifier: 2 parts by weight of alkylaryl polyglycol ether To produce a suitable preparation of active compound, 1 part by weight of active compound is mixed with the stated amounts of solvent and emulsifier and the concentrate is diluted with emulsifier-containing water to the desired concentration. Cabbages leaves (Brassica oleracea) are treated by being dipped into the active compound preparation of the desired concentration and populated with caterpillars of the diamondback moth (Plutella xylostella) while the leaves are still moist. After the desired period of time, the kill in % is determined. 100% means that all caterpillars have been killed; 0% means that none of the caterpillars have been killed.

Data set [3] has as its system caterpillars of the army worm (Spodoptera exigua). Kind of data set: Spodoptera exigua test (leaf dip). It is filed as in vivo. Here is the method: as §1, with “Spodoptera exigua” for “Plutella”, “Cabbage” for “Cabbages”, “army worm (Spodoptera exigua)” for “diamondback moth (Plutella xylostella)”
Data set [4] concerns green peach aphid (Myzus persicae). Kind of data set: Myzus test; oral. It is filed as in vivo. On the procedure: Myzus Test; Oral Solvent: 80 parts by weight of acetone To produce a suitable preparation of active compound, 1 part by weight of active compound is mixed with the stated amounts of solvent and the concentrate is diluted with water to the desired concentration. Vessels are populated with all stages of the green peach aphid (Myzus persicae) which are treated by sucking the active compound preparation of the desired concentration. After the desired period of time, the activity in % is determined. 100% means that all aphids have been killed; 0% means that none of the aphids have been killed.

The subject of data set [5] is larvae of the mustard beetle (Phaedon cochleariae). Description: Phaedon test (sprayed Chinese cabbage discs). It is filed as in vivo. Here is the method: Phaedon Test Solvents: 78 parts by weight of acetone • • 1.5 parts by weight of dimethylformamide Emulsifier: 0.5 part by weight of alkylaryl polyglycol ether To produce a suitable preparation of active compound, 1 part by weight of active compound is mixed with the stated amounts of solvents and emulsifier and the concentrate is diluted with emulsifier-containing water to the desired concentration. Discs of Chinese cabbage (Brassica pekinensis) are sprayed with an active compound preparation of the desired concentration and, after drying, populated with larvae of the mustard beetle (Phaedon cochleariae). After the desired period of time, the activity in % is determined. 100% means that all beetle larvae have been killed; 0% means that none of the beetle larvae have been killed.

Data set [6] deals with caterpillars of the cotton bollworm (Heliothis armigera). Kind of data set: Heliothis armigera test (leaf dip). It is filed as in vivo. The following applies: for Kill rate after 7d in %: 20 ppm. Here is the method:
as §1, with “Heliothis armigera” for “Plutella”, “Soya bean” for “Cabbages”, “(Glycine max.)” for “(Brassica oleracea)”, “cotton bollworm (Heliothis armigera)” for “diamondback moth (Plutella xylostella)”

The test system of data set [7] is Spodoptera frugiperda larvae. Description: Spodoptera frugiperda test (treatment by watering). The following applies: for Kill rate after 14d in %: 20 ppm, treatment by watering. It is filed as in vivo. On the procedure: Spodoptera frugiperda Test Solvent: 7 parts by weight of dimethylformamide Emulsifier: 2 parts by weight of alkylaryl polyglycol ether To produce a suitable preparation of active compound, 1 part by weight of active compound is mixed with the stated amounts of solvent and emulsifier and the concentrate is diluted with water to the desired concentration. Maize plants (Zea mays) are watered with an active compound preparation of the desired concentration and infected with Spodoptera frugiperda larvae. After the desired period of time, the kill in % is determined. 100% means that all larvae have been killed; 0% means that none of the larvae have been killed.

Data set [8] has as its system caterpillars of the army worm (Spodoptera frugiperda). Description: Spodoptera frugiperda test (SPODFR spray treatment). It is filed as in vivo. The following applies: for Kill rate after 7d in %: spray treatment. On the procedure: Spodoptera frugiperda Test (SPODFR Spray Treatment) Solvents: 78 parts by weight of acetone • • 1.5 parts by weight of dimethylformamide Emulsifier: 0.5 part by weight of alkylaryl polyglycol ether To produce a suitable preparation of active compound, 1 part by weight of active compound is mixed with the stated amounts of solvents and emulsifier and the concentrate is diluted with emulsifier-containing water to the desired concentration. Discs of maize leaves (Zea mays) are sprayed with an active compound preparation of the desired concentration and after drying populated with caterpillars of the army worm (Spodoptera frugiperda). After the desired period of time, the activity in % is determined. 100% means that all of the caterpillars have been killed; 0% means that none of the caterpillars have been killed.

Data set [9] concerns Diabrotica undecimpunctata. Kind of data set: Diabrotica undecimpunctata (DIABUN) test (eggs). It is filed as in vivo. The following applies: for Kill rate after 2-5d in %: 300 ppm, eggs. On the procedure: (§2) Diabrotica undecimpunctata (DIABUN) Solvents: 1% of N-methylpyrrolidone (NMP) • 1% of diacetone alcohol Dye: brilliant sulphoflavin for staining the water To produce a suitable preparation of active compound, the active compound is mixed with the stated amounts of solvents and the concentrate is diluted with stained water to the desired concentration. The eggs (Diabrotica undecimpunctata) are treated with an active compound preparation of the desired concentration. After the desired period of time, the activity in % is determined. 100% means that all animals have been killed; 0% means that none of the animals have been killed.

Data set [10] can be described thus: logP determination by HPLC (reversed-phase C18), EEC Directive 79/831 Annex V.A8. It is filed as physicochemical. The following applies: HPLC reversed-phase C18, 43° C., acidic range pH 2.7. On the procedure: The logP values given in the tables and Preparation Examples above are determined in accordance with EEC Directive 79/831 Annex V.A8 by HPLC (High Performance Liquid Chromatography) on a reversed-phase column (C 18). Temperature: 43° C. The determination by LC-MS in the acidic range is carried out at pH 2.7 using 0.1% aqueous formic acid and acetonitrile (contains 0.1% formic acid) as mobile phases; linear gradient from 10% acetonitrile to 95% acetonitrile. Calibration is carried out using unbranched alkan-2-ones (having 3 to 16 carbon atoms) with known logP values (determination of the logP values by the retention times using linear interpolation between two successive alkanones).

For data set [11], the system named is Heliothis virescens. Description: Heliothis virescens test (eggs). The following applies: for Kill rate after 6-7d in %: 300 ppm, eggs. It is filed as in vivo. Here is the method: as §2, with “Heliothis virescens” for “Diabrotica undecimpunctata (DIABUN)”, “(Heliothis virescens)” for “(Diabrotica undecimpunctata)”
Data set [12] deals with Myzus persicae. Description: Myzus persicae test (ingestion of active compound preparation). It is filed as in vivo. The following applies: for Kill rate after 6-7d in %: 30 ppm, ingestion. On the procedure: Myzus persicae Test Solvents: 1% of N-methylpyrrolidone (NMP) • 1% of diacetone alcohol Dye: brilliant sulphoflavin for staining the water To produce a suitable preparation of active compound, the active compound is mixed with the stated amounts of solvents and the concentrate is diluted with stained water to the desired concentration. The Myzus persicae are provided with an active compound preparation of the desired concentration for ingestion. After the desired period of time, the activity in % is determined. 100% means that all aphids have been killed; 0% means that none of the aphids have been killed.

As a reminder, the logP is a log measure of how a compound divides between an organic and an aqueous phase.

`O=C(Nc1c(Cl)cc(Cl)cc1C1=NOCCO1)c1cc(C(F)(F)F)nn1-c1cccc(Cl)n1` [Example I-1-1]: the “activity in the Spodoptera exigua test, resistant strain (in words)” value in data set [1] was “good activity”. Moreover, the “Kill rate after 7d in %” value in data set [1] (100 ppm, 7 d, resistant strain) is reported as 100%; in [2] (100 ppm, 7 d), 100%; in data set [3] (20 ppm, 7 d), 100%; in [5] (500 g/ha) it was 100%; in data set [6], 100%; in data set [8] (500 g/ha), 100%. Besides, the “activity in the Plutella test (in words)” value in data set [2] is listed as “good activity”. In addition, the “activity in the Spodoptera exigua test (in words)” value in [3] is listed as “good activity”. In [4], the “activity in the Myzus test, oral (in words)” value was “good activity”. Also, the “activity in the Phaedon test (in words)” value in data set [5] was “good activity”. For the same compound, in data set [6], the “activity in the Heliothis armigera test (in words)” value is “good activity”. Moreover, the “activity in the Spodoptera frugiperda test, watering (in words)” value in data set [7] is “good activity”. Besides, the “Kill rate after 14d in %” value in data set [7] stood at 95%. Moreover, the “activity in the Spodoptera frugiperda test, spray treatment (in words)” value (from here on “activity … spray treatment (in words)”) in data set [8] is “good activity”.
On to `Cc1cc(Cl)cc(C2=NOCCO2)c1NC(=O)c1cc(Br)nn1-c1ncccc1Cl` [Example I-1-5], for which the “activity in the Phaedon test (in words)” value in data set [5] is given as “good activity”. The “Kill rate after 7d in %” value in data set [5] (100 g/ha) is reported as 83%. In addition, in data set [9], the “activity in the Diabrotica undecimpunctata test (in words)” value is on record as “good activity” and the “Kill rate after 2-5d in %” value came to 100%. Also, in data set [10], the logP came out at 3.13. Moreover, in [8], the “activity … spray treatment (in words)” value was “good activity”. Moreover, in data set [8] (100 g/ha), the “Kill rate after 7d in %” value amounted to 100%.
In the case of `Cc1cccc(C2=NOCCO2)c1NC(=O)c1cc(Cl)nn1-c1ncccc1Cl` [Example I-1-7], in data set [11], the “activity in the Heliothis virescens test (in words)” value is reported as “good activity” and the “Kill rate after 6-7d in %” value is listed as 100%. In [12], the “activity in the Myzus persicae test (in words)” value is on record as “good activity” and the “Kill rate after 6-7d in %” value is listed as 100%. Further, the lipophilicity (logP) in data set [10] stood at 2.54. The “activity … spray treatment (in words)” value in data set [8] was “good activity”. In addition, the “Kill rate after 7d in %” value in data set [8] (100 g/ha) was determined as 100%.
On to `Cc1cc(Cl)cc(C2=NOCCO2)c1NC(=O)c1cc(Cl)nn1-c1ncccc1Cl` [Example I-1-9], for which, in [11], the “activity in the Heliothis virescens test (in words)” value is reported as “good activity” and the “Kill rate after 6-7d in %” value is reported as 100%. Moreover, the “activity in the Phaedon test (in words)” value in data set [5] is given as “good activity”. Also, in data set [5] (100 g/ha), the “Kill rate after 7d in %” value was 100%. In data set [6], the “activity in the Heliothis armigera test (in words)” value is “good activity” and the “Kill rate after 7d in %” value came to 80%. In addition, in data set [7], the “activity in the Spodoptera frugiperda test, watering (in words)” value is reported as “good activity” and the “Kill rate after 14d in %” value is recorded as 95%. In data set [9], the “activity in the Diabrotica undecimpunctata test (in words)” value is “good activity” and the “Kill rate after 2-5d in %” value is listed as 100%. Besides, in data set [12], the “activity in the Myzus persicae test (in words)” value was “good activity” and the “Kill rate after 6-7d in %” value is recorded as 100%. The same compound returned a logP in [10] of 3.08. In [8], the “activity … spray treatment (in words)” value is given as “good activity”. Moreover, in data set [8] (100 g/ha), the “Kill rate after 7d in %” value was 100%.

Values taken from patent US8062995B2, “Dioxazine-substituted arylamides” (Bayer CropScience AG, priority 2005, dated 2011).
